For 27 compounds, Ki results are on record in patent US9212173B2, “Pyrazole aminopyrimidine derivatives as LRRK2 modulators” (Genentech, Inc., priority 2012, dated 2015).

Structures are written as SMILES.

The test concerns the target LRRK2 (Homo sapiens (Human), UniProt Q5S007, G2019S). In words: In Vitro LRRK2 Assay (LRRK2 Ki). Type of test: biochemical. As to the method:
In Vitro LRRK2 Lanthascreen Binding Assay
This assay was used to determine a compound's potency in inhibiting activity of LRRK2 by determining, Kiapp, IC50, or percent inhibition values.
Binding of the Alexa Fluor® “tracer” to a kinase is detected by addition of a Eu-labeled anti-GST antibody.
12 pt curve. […] Stamp 5 ul to assay plate. Final top test concentration 100 uM
In Reaction Buffer, 5 ul of DMSO (3%) was added to total and blank wells and 5 ul of Eu-labeled anti-GST antibody (6 nM) was added to blank wells. Add 5 ul LRRK2 (30 nM)/Eu-labeled anti-GST antibody (6 nM) mix to compound and total wells.
Incubate plates at room temperature for 1 hour on a plate shaker (gentle shaking). Read on Perkin Elmer EnVision reader HTRF protocol
Subtract mean background values from all data points. Calculate % of control for each test value. Plot % of control vs Compound concentration. Calculate Ki Value (xlfit curve fitting-Morrison equation). Results expressed as a Ki in μM. Equation for Ki: Y=V0*(1−((x+Ki*(1+S/Km)+Et)/(2*Et)−(((x+Ki*(1+S/Km)+Et)^2−(4*Et*x))^0.5)/(2*Et)))
This assay was used to determine a compound's potency in inhibiting activity of LRRK2 by determining, Kiapp, IC50, or percent inhibition values. In a polypropylene plate, LRRK2, fluorescently-labeled peptide substrate, ATP and test compound were incubated together. Using a LabChip 3000 (Caliper Life Sciences), after the reaction the substrate was separated by capillary electrophoresis into two populations: phosphorylated and unphosphorylated. The relative amounts of each were quantitated by fluorescence intensity. LRRK2 Ki was determined according to the equation: Y=V0*(1−((x+Ki*(1+S/Km)+Et)/(2*Et)−(((x+Ki*(1+S/Km)+Et)^2−(4*Et*x))^0.5)/(2*Et))).
Ki values in Table 4 and elsewhere herein are shown in μM.
For serial dilutions, 34.6 μl DMSO was added to columns 3-24.
In Complete Reaction Buffer, substrate was diluted to 4 μM. Equal volumes of Complete Reaction Buffer and 4 μM substrate were combined to obtain the blank. Equal volumes of Complete Reaction Buffer and 4 μM substrate were combined and to the combined solution was added 2× final LRRK2 concentration.
To a 50 μl polypropylene plate, 5 μl/well buffer/substrate was added by hand to Blank wells. A Biomek FX was used to start the kinase reaction (“PLK SAR 23 ATP”). The following were added to the appropriate wells:
The plate was incubated for 2 hours in the dark. Biomek FX was used to stop the kinase reaction (“PLK Stop”), and 10 μl/well Stop solution was added to the Assay Plate. Results were read on the LabChip 3000.
The LabChip 3000 was run using the job “LRRK2 IC50” with the following job settings: […]

LRRK2, sequence (Q5S007 whole entry G2019S): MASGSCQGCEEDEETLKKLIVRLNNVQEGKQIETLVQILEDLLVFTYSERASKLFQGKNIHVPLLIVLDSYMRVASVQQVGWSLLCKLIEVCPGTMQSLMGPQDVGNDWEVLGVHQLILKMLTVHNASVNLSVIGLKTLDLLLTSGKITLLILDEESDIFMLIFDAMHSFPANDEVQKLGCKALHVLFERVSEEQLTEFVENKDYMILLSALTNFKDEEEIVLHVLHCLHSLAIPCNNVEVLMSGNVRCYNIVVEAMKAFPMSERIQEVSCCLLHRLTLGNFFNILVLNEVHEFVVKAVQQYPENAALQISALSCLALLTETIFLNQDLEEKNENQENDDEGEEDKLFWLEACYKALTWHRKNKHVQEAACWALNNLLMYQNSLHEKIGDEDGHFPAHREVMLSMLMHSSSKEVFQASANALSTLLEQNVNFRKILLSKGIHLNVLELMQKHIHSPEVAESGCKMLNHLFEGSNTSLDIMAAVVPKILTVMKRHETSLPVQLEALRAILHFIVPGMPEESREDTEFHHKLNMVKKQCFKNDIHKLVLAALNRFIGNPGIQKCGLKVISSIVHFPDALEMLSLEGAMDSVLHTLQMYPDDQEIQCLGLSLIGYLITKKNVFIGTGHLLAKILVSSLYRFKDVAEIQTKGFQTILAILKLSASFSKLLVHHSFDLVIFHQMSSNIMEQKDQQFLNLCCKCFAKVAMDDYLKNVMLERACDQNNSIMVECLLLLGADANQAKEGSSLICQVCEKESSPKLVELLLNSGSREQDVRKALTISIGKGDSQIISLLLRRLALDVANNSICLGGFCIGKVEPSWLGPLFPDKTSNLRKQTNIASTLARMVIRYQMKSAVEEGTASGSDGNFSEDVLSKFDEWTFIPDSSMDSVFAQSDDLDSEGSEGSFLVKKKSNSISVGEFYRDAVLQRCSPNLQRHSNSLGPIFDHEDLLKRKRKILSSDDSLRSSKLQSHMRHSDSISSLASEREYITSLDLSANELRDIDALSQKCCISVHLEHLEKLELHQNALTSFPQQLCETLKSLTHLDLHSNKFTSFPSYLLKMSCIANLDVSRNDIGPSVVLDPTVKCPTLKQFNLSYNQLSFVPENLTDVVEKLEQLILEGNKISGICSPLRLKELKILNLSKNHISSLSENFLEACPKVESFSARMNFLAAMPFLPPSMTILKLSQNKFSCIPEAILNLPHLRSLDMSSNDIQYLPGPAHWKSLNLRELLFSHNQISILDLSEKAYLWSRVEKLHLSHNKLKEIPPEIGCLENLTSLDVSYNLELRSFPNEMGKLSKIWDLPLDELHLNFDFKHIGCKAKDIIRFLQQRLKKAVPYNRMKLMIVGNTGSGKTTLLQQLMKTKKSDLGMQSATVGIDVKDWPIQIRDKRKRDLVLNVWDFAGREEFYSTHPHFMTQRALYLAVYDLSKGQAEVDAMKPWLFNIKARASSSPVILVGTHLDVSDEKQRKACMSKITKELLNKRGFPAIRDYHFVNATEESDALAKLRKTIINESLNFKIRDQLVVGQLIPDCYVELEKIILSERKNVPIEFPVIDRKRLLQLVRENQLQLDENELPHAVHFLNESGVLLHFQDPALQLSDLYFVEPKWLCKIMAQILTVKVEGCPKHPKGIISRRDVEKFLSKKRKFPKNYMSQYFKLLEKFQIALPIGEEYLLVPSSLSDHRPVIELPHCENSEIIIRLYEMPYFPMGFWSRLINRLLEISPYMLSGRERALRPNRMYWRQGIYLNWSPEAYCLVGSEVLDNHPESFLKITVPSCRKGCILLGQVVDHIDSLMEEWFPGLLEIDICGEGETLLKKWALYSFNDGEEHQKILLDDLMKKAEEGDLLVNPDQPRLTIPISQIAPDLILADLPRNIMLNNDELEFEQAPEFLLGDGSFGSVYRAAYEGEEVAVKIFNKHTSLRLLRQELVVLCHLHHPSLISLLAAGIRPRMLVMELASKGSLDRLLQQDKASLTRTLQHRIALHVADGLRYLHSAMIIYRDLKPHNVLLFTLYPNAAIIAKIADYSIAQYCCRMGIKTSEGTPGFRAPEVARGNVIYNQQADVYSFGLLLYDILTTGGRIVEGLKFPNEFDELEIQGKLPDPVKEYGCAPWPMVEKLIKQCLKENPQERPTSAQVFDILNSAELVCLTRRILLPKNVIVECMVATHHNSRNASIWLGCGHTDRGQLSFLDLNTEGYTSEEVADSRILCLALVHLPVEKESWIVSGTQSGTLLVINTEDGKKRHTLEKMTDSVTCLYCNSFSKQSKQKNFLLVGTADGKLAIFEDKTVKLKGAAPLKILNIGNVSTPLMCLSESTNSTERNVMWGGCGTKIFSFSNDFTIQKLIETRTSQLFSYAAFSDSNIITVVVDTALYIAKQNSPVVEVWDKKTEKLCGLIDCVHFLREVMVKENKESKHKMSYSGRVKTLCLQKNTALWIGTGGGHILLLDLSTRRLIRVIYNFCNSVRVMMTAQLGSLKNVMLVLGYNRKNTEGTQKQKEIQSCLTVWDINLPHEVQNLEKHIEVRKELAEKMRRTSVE

As usually defined, the Ki is a measure of affinity in units of concentration, obtained from inhibition or displacement. `CCNc1nc(Nc2cn(C3(C)COC3)nc2C)ncc1C(F)(F)F` [Example 19, N4-ethyl-N2-(3-methyl-1-(3-methyloxetan-3-yl)-1H-pyrazol-4-yl)-5-(trifluoromethyl)pyrimidine-2,4-diamine] displayed a Ki of 0.975 nM.

In turn, `CCNc1nc(Nc2cc(C#N)nn2C)ncc1C(F)(F)F` [Example 50, 5-((4-(ethylamino)-5-(trifluoromethyl)pyrimidin-2-yl)amino)-1-methyl-1H-pyrazole-3-carbonitrile] registered a Ki of 24.5 nM. This Ki lies about 25-fold higher than the previous one.

The compound `CNc1nc(Nc2cnn(CC(C)c3ccn(C)n3)c2C)ncc1C(F)(F)F` (stereo not drawn) [Example 24, N4-methyl-N2-(5-methyl-1-(2-(1-methyl-1H-pyrazol-3-yl)propyl)-1H-pyrazol-4-yl)-5-(trifluoromethyl)pyrimidine-2,4-diamine] returned a Ki of 16.6 nM. This Ki and that of the compound before are within 1.5-fold of each other.

Take `CNc1nc(Nc2cn(C3CCOC[C@H]3F)nc2C)ncc1C(F)(F)F` (stereo in doubt) [Example 37, N2-(1-(3-fluorotetrahydro-2H-pyran-4-yl)-3-methyl-1H-pyrazol-4-yl)-N4-methyl-5-(trifluoromethyl)pyrimidine-2,4-diamine]: the Ki was found to be 0.6 nM.

Take `CCNc1nc(Nc2cn(C(C)(C)c3nncn3C)nc2Cl)ncc1C(F)(F)F` [Example 31, N2-(3-chloro-1-(2-(4-methyl-4H-1,2,4-triazol-3-yl)propan-2-yl)-1H-pyrazol-4-yl)-N4-ethyl-5-(trifluoromethyl)pyrimidine-2,4-diamine]: the Ki was 42.5 nM. This Ki lies about 71-fold higher than the previous one.

The compound `CCNc1nc(Nc2cn(C(C)(C)c3nnc(C)o3)nc2Cl)ncc1C(F)(F)F` [Example 27, N2-(3-chloro-1-(2-(5-methyl-1,3,4-oxadiazol-2-yl)propan-2-yl)-1H-pyrazol-4-yl)-N4-ethyl-5-(trifluoromethyl)pyrimidine-2,4-diamine] displayed a Ki of 3.7 nM.

Turning to `CNc1nc(Nc2cc(C(C)(C)C#N)nn2C)ncc1C(F)(F)F` [Example 45, 2-methyl-2-(1-methyl-5-((4-(methylamino)-5-(trifluoromethyl)pyrimidin-2-yl)amino)-1H-pyrazol-3-yl)propanenitrile], the affinity, expressed as Ki, was 8.6 nM. Compared with the last compound, the Ki is about 2.3-fold higher.

The compound `Cc1c(Nc2ncc(C#N)c(NC3CC3)n2)cnn1C1CCOCC1` [Example 3, 4-(cyclopropylamino)-2-((5-methyl-1-(tetrahydro-2H-pyran-4-yl)-1H-pyrazol-4-yl)amino)pyrimidine-5-carbonitrile] gave a Ki of 7.3 nM.

Turning to `CNc1nc(Nc2cn(C(C)(C)c3ncc(C)o3)nc2C)ncc1C(F)(F)F` [Example 18, N4-methyl-N2-(3-methyl-1-(2-(5-methyloxazol-2-yl)propan-2-yl)-1H-pyrazol-4-yl)-5-(trifluoromethyl)pyrimidine-2,4-diamine], the Ki was 3.82 nM.

For the compound `CCNc1nc(Nc2cn(S(=O)(=O)CCOC)nc2C)ncc1C(F)(F)F` [Example 20, N4-ethyl-N2-(1-((2-methoxyethyl)sulfonyl)-3-methyl-1H-pyrazol-4-yl)-5-(trifluoromethyl)pyrimidine-2,4-diamine], affinity was put at a Ki of 0.96 nM.

`CNc1nc(Nc2cn(CCc3ccn(C)n3)nc2C)ncc1C(F)(F)F` [Example 36, N4-methyl-N2-(3-methyl-1-(2-(1-methyl-1H-pyrazol-3-yl)ethyl)-1H-pyrazol-4-yl)-5-(trifluoromethyl)pyrimidine-2,4-diamine] returned an inhibitory constant (Ki) of 3.7 nM.

As for `CNc1nc(Nc2cn(C(C)(C)c3ncccn3)nc2C)ncc1C(F)(F)F` [Example 26, N4-methyl-N2-(3-methyl-1-(2-(pyrimidin-2-yl)propan-2-yl)-1H-pyrazol-4-yl)-5-(trifluoromethyl)pyrimidine-2,4-diamine], the Ki is 4.3 nM.

As to `CNc1nc(Nc2cn(C(C)(C)CC#N)nc2C)ncc1C(F)(F)F` [Example 41, 3-methyl-3-(3-methyl-4-((4-(methylamino)-5-(trifluoromethyl)pyrimidin-2-yl)amino)-1H-pyrazol-1-yl)butanenitrile], the affinity, expressed as Ki, was 12.8 nM. Against the preceding compound, the Ki is about 3-fold higher.

`CNc1nc(Nc2cnn(CC3(O)CC3)c2Cl)ncc1C(F)(F)F` [Example 10, 1-((5-chloro-4-((4-(methylamino)-5-(trifluoromethyl)pyrimidin-2-yl)amino)-1H-pyrazol-1-yl)methyl)cyclopropanol] returned a Ki of 5 nM.

As for `CNc1nc(Nc2cnn(CCc3ccn(C)n3)c2C)ncc1C(F)(F)F` [Example 33, N4-methyl-N2-(5-methyl-1-(2-(1-methyl-1H-pyrazol-3-yl)ethyl)-1H-pyrazol-4-yl)-5-(trifluoromethyl)pyrimidine-2,4-diamine], affinity was put at a Ki of 2 nM.

For the compound `CCNc1nc(Nc2cn(C(C)(C)c3ncn(C(C)C)n3)nc2C)ncc1C(F)(F)F` [Example 30, N4-ethyl-N2-(1-(2-(1-isopropyl-1H-1,2,4-triazol-3-yl)propan-2-yl)-3-methyl-1H-pyrazol-4-yl)-5-(trifluoromethyl)pyrimidine-2,4-diamine], the Ki came out at 0.6 nM.

Turning to `CNc1nc(Nc2cnn(C3CCOC[C@H]3F)c2C)ncc1C(F)(F)F` (stereo in doubt) [Example 39, N2-(1-(3-fluorotetrahydro-2H-pyran-4-yl)-5-methyl-1H-pyrazol-4-yl)-N4-methyl-5-(trifluoromethyl)pyrimidine-2,4-diamine], the Ki is 2.8 nM. This Ki is about 4.7-fold higher than that of the compound before.

Take `CCNc1nc(Nc2cn(C(C)(C)c3ncn(C)n3)nc2Cl)ncc1C(F)(F)F` [Example 32, N2-(3-chloro-1-(2-(1-methyl-1H-1,2,4-triazol-3-yl)propan-2-yl)-1H-pyrazol-4-yl)-N4-ethyl-5-(trifluoromethyl)pyrimidine-2,4-diamine]: the affinity, expressed as Ki, was 0.5 nM.

In the case of `CCNc1nc(Nc2cnn(C3CCOCC3)c2Cl)ncc1C#N` [Example 7, 2-((5-chloro-1-(tetrahydro-2H-pyran-4-yl)-1H-pyrazol-4-yl)amino)-4-(ethylamino)pyrimidine-5-carbonitrile], the Ki came to 6.2 nM.

On to `CCNc1nc(Nc2cc(C(C)(C)C#N)nn2C)ncc1C(F)(F)F` [Example 44, 2-(5-((4-(ethylamino)-5-(trifluoromethyl)pyrimidin-2-yl)amino)-1-methyl-1H-pyrazol-3-yl)-2-methylpropanenitrile], for which the Ki was determined as 0.7 nM.

The compound `CNc1nc(Nc2cn(C(C)(C)c3nc(C)cn3C)nc2C)ncc1C(F)(F)F` [Example 16, N2-(1-(2-(1,4-dimethyl-1H-imidazol-2-yl)propan-2-yl)-3-methyl-1H-pyrazol-4-yl)-N4-methyl-5-(trifluoromethyl)pyrimidine-2,4-diamine] showed a Ki of 140 nM.

Take `CNc1nc(Nc2cn(S(=O)(=O)CCOC)nc2C)ncc1C(F)(F)F` [Example 21, N2-(1-((2-methoxyethyl)sulfonyl)-3-methyl-1H-pyrazol-4-yl)-N4-methyl-5-(trifluoromethyl)pyrimidine-2,4-diamine]: the Ki was 1.85 nM. This Ki is about 76-fold lower than that of the compound before.

The compound `CNc1nc(Nc2cn(C(C)(C)CO)nc2C)ncc1C(F)(F)F` [Example 9, 2-methyl-2-(3-methyl-4-((4-(methylamino)-5-(trifluoromethyl)pyrimidin-2-yl)amino)-1H-pyrazol-1-yl)propan-1-ol] yielded a Ki of 4.8 nM.

As to `Cc1nn(C(C)(C)C#N)cc1Nc1ncc(C#N)c(NC2CC2)n1` [Example 46, 2-((1-(2-cyanopropan-2-yl)-3-methyl-1H-pyrazol-4-yl)amino)-4-(cyclopropylamino)pyrimidine-5-carbonitrile], affinity was put at a Ki of 3 nM.

Consider `CNc1nc(Nc2cn(C3(C)COC3)nc2C)ncc1C(F)(F)F` [Example 15, N4-methyl-N2-(3-methyl-1-(3-methyloxetan-3-yl)-1H-pyrazol-4-yl)-5-(trifluoromethyl)pyrimidine-2,4-diamine], for which the affinity, expressed as Ki, was 4.8 nM.

As to `CCC(C#N)Cn1cc(Nc2ncc(C(F)(F)F)c(NC)n2)c(C)n1` (stereo not drawn) [Example 42, 2-((3-methyl-4-((4-(methylamino)-5-(trifluoromethyl)pyrimidin-2-yl)amino)-1H-pyrazol-1-yl)methyl)butanenitrile], the Ki was determined as 4.1 nM.

As to `CCNc1nc(Nc2cnn(C(C)(C)c3nncn3C)c2Cl)ncc1C(F)(F)F` [Example 23, N2-(5-chloro-1-(2-(4-methyl-4H-1,2,4-triazol-3-yl)propan-2-yl)-1H-pyrazol-4-yl)-N4-ethyl-5-(trifluoromethyl)pyrimidine-2,4-diamine], the affinity corresponds to a Ki of 1.1 nM.
